Bridge positions count the residues as written; N and C are the ends. Square brackets hold non-standard residues; d marks the D form. Peptide text beside a SMILES is read from it. I, II: the chains in the order shown. * marks the point of attachment. Quinaldoyl(3-OH) = O=C(c1nc2ccccc2cc1O)*; NMeC = CN[C@@H](CS)C(=O)O
Legend:
Assay type in all cases: functional
K562 = assay: Cytotoxicity against human K562 cells after 72 hrs by SRB assay; conditions: K562, 72 h
PANC-1 = assay: Cytotoxicity against human PANC1 cells after 72 hrs by SRB assay; conditions: PANC-1, 72 h
[1] = Cytotoxicity against human IGROV cells after 72 hrs by SRB assay
LoVo [2] = assay: Cytotoxicity against doxorubicin resistant human LoVo cells after 72 hrs by SRB assay
LoVo [3] = assay: Cytotoxicity against human LoVo cells after 72 hrs by SRB assay
HT-29 = assay: Cytotoxicity against human HT29 cells after 72 hrs by SRB assay; conditions: HT-29, 72 h
A549 = assay: Cytotoxicity against human A549 cells after 72 hrs by SRB assay; conditions: A549, 72 h
SK-MEL-28 = assay: Cytotoxicity against human SK-MEL-28 cells after 72 hrs by SRB assay; conditions: SK-MEL-28, 72 h
HeLa = assay: Cytotoxicity against human HeLa cells after 72 hrs by SRB assay
SK-BR-3 = assay: Cytotoxicity against human SK-BR3 cells after 72 hrs by SRB assay; conditions: SK-BR-3, 72 h
LNCaP = assay: Cytotoxicity against human LNCaP cells after 72 hrs by SRB assay
DU-145 = assay: Cytotoxicity against human DU145 cells after 72 hrs by SRB assay; conditions: DU-145, 72 h
[4] = read-out: LC50 (the source's name)

CSC[C@H]1C(=O)SC[C@@H](NC(=O)c2nc3ccccc3cc2O)C(=O)NCC(=O)N(C)[C@H]2CSSC[C@@H](C(=O)N1C)N(C)C(=O)CNC(=O)[C@H](NC(=O)c1nc3ccccc3cc1O)CSC(=O)[C@H](CSC)N(C)C2=O [THIOCORALINE A] (I: {Quinaldoyl(3-OH)}-[dC]G[NMeC][NMeC](Me) / II: {Quinaldoyl(3-OH)}-[dC]G[NMeC][NMeC](Me); thioester I:1-II:C, I:C-II:1; disulfide I:3-II:3)
GI50 (K562): 1.3 nM | TGI (K562): 4.6 nM | CC50 (K562; [4]): 9.2 nM | GI50 (PANC-1): 2.5 nM | TGI (PANC-1): 82.5 nM | CC50 (PANC-1; [4]): 378 nM | GI50 [1]: 1.9 nM | TGI [1]: 11.1 nM | CC50 [1, 4]: 1260 nM | GI50 (LoVo [2]): 212 nM | TGI (LoVo [2]): 2380 nM | GI50 (LoVo [3]): 7.2 nM | TGI (LoVo [3]): 263 nM | CC50 (LoVo [3]; [4]): 284 nM | GI50 (HT-29): 3.9 nM | TGI (HT-29): 73.6 nM | CC50 (HT-29; [4]): 6290 nM | GI50 (A549): 4.8 nM | TGI (A549): 19.3 nM | CC50 (A549; [4]): 95.6 nM | GI50 (SK-MEL-28): 3 nM | TGI (SK-MEL-28): 14 nM | CC50 (SK-MEL-28; [4]): 50.3 nM | GI50 (HeLa): 1.3 nM | TGI (HeLa): 4.7 nM | CC50 (HeLa; [4]): 22.6 nM | GI50 (SK-BR-3): 2.2 nM | TGI (SK-BR-3): 8.9 nM | CC50 (SK-BR-3; [4]): 30.8 nM | GI50 (LNCaP): 3 nM | TGI (LNCaP): 5 nM | CC50 (LNCaP; [4]): 14.2 nM | GI50 (DU-145): 1.9 nM | TGI (DU-145): 6.4 nM | CC50 (DU-145; [4]): 1480 nM

Reference: ChEMBL document CHEMBL1145432, “Antitumor activity, X-ray crystal structure, and DNA binding properties of thiocoraline A, a natural bisintercalating thiodepsipeptide” (2007)
